Earlier results, collected in US20200155510A1, “TREATMENT OF AUTOIMMUNE DISORDERS, SUCH AS RELAPSING REMITTING MULTIPLE SCLEROSIS AND […] SYNDROME WITH BIOTIN COMPOSITIONS” (JDS Therapeutics, LLC, priority 2018, published 2020).

Conditions: relative to biotin; background statement, no method given

Question: With `O=C(O)CCCC[C@@H]1SC[C@@H]2NC(=O)N[C@@H]21` [Magnesium biotinate, Magnesium D-biotinate] as the compound, how does the water solubility read?
Answer: more water soluble than biotin
